≈ marks a conversion by molar mass, not a printed value.
Assay: Cytotoxicity against human ovarian cancer cells
Format: functional, cell-based
Conditions: Cancer cell lines

**Q.** With `Cn1c(=N)c2nc[nH]c2n(C)c1=O` as the compound, how does the IC50 read?
**A.** 2.1 mg/L (≈ 11.7 µM)
